In patent US10980781B2, “6-amino-2,4-dihydropyrano [2,3-c] pyrazoles and methods of use” (Purdue Research Foundation, priority 2017, dated 2021):

Target: USP7 (Homo sapiens (Human), UniProt Q93009)
Assay: USP7 inhibition assay with Ub-Rho 110 substrate (fluorescence progress curves)
Assay type: biochemical
Conditions: for inhibition at 100 µM / % inhibition @100 μM: 100 μM compound, 1 nM USP7, 200 nM Ub-Rho 110, 3% DMSO, triplicate; for IC50: 11 compound concentrations, two-fold serial dilutions, 1 nM USP7, 200 nM Ub-Rho 110
Description: Each assay was measured in triplicate. […] All reactions contained a final concentration of 3% DMSO. […] The percent inhibition was calculated using Equation (1).
The assay design was identical to as described above. The percent inhibition was calculated using Equation 1 and fit to Equation 2 by use of the Enzyme Kinetics Module of Sigma Plot (v13:Systat Software Inc.), to determine the IC50 value.

Sequence of USP7 (Q93009 whole entry): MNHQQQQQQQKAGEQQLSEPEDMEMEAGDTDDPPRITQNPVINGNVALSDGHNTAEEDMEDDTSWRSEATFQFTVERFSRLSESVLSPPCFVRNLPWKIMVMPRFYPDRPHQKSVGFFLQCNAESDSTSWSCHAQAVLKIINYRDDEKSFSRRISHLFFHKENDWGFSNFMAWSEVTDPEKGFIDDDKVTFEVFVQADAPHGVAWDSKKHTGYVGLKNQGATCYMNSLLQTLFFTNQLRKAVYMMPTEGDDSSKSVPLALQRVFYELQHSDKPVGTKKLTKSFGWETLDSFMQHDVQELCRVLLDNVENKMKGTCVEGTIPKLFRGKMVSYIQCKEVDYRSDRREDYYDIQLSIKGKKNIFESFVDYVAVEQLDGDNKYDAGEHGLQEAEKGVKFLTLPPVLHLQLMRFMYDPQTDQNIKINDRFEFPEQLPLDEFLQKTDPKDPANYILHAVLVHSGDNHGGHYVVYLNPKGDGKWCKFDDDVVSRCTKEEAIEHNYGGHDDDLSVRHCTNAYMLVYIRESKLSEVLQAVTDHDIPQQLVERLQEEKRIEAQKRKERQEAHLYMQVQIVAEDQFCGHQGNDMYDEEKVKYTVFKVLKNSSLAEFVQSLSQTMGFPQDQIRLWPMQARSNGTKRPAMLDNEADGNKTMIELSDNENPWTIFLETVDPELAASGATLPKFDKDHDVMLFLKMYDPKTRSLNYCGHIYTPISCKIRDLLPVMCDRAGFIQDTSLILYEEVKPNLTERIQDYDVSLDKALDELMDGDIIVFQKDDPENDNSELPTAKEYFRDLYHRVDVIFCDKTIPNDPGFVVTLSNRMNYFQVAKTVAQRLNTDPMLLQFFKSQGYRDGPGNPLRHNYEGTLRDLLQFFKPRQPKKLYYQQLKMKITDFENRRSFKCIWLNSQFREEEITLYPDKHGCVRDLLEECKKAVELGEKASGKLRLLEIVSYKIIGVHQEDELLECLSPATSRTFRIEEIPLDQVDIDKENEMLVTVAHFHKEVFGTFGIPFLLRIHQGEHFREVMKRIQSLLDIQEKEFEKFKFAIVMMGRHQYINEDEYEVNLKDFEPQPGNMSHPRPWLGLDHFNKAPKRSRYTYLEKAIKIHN

| SMILES | inhibition at 100 µM [%] | IC50 [µM] | % inhibition @100 μM [%] |
| --- | --- | --- | --- |
| C=CCN1CCc2ccc(C3C(C#N)=C(N)Oc4n[nH]c(-c5cccs5)c43)cc21 (stereo not shown) [Compound 6i, 4-(1-Allylindolin-6-yl)-6-amino-3-(thiophen-2-yl)-2,4-dihydropyrano[2,3-c]pyrazole-5-carbonitrile] | 63 ± 1 |  |  |
| COc1ccc(C2C(C#N)=C(N)Oc3n[nH]c(-c4ccc(Cl)cc4)c32)cc1I (stereo not shown) [Compound 7i, 6-Amino-3-(4-chlorophenyl)-4-(3-iodo-4-methoxyphenyl)-2,4-dihydropyrano [2,3-c]pyrazole-5-carbonitrilem] |  | 15 ± 2 | 69 ± 3 |
| COc1ccc(C2C(C#N)=C(N)Oc3n[nH]c(-c4cccs4)c32)cc1F (racemic) [Compound 6s, 6-Amino-4-(3-fluoro-4-methoxyphenyl)-3-(thiophen-2-yl)-2,4-dihydropyrano [2,3-c]pyrazole-5-carbonitrile] | 32 ± 13 | 7 ± 2 |  |
| N#CC1=C(N)Oc2n[nH]c(-c3cccs3)c2C1c1ccc(O)cc1 (stereo not shown) [Compound 6d, 6-Amino-4-(4-hydroxyphenyl)-3-(thiophen-2-yl)-2,4-dihydropyrano [2,3-c]pyrazole-5-carbonitrile] | 0 |  |  |
| N#CC1=C(N)Oc2n[nH]c(-c3cccs3)c2C1c1ccc2c(c1)CCO2 (racemic) [Compound 6o, 6-Amino-4-(2,3-dihydrobenzofuran-5-yl)-3-(thiophen-2-yl)-2,4-dihydropyrano [2,3-c]pyrazole-5-carbonitrile] | 45 ± 9 | 13 ± 3 |  |
| COc1cc(C)c(C2C(C#N)=C(N)Oc3n[nH]c(-c4cccs4)c32)cc1C(C)C (racemic) [Compound 6r, 6-Amino-4-(5-isopropyl-4-methoxy-2-methylphenyl)-3-(thiophen-2-yl)-2,4-dihydropyrano[2,3-c]pyrazole-5-carbonitrile] | 95 ± 4 | 1.4 ± 0.2 |  |
| COc1ccc(C2C(C#N)=C(N)Oc3n[nH]c(-c4cccnc4)c32)cc1Br (racemic) [Compound 7e, 6-Amino-4-(3-bromo-4-methoxyphenyl)-3-(pyridin-3-yl)-2,4-dihydropyrano [2,3-c]pyrazole-5-carbonitrile] | 82 ± 9 | 24 ± 5 |  |
| COc1ccc(C2C(C#N)=C(N)Oc3n[nH]c(-c4cccnc4)c32)cc1I (racemic) [Compound 7f, 6-Amino-4-(3-iodo-4-methoxyphenyl)-3-(pyridin-3-yl)-2,4-dihydropyrano [2,3-c]pyrazole-5-carbonitrile] | 83 ± 3 | 7.7 ± 0.9 |  |
| CCOCNC1=C(C#N)C(c2ccc(OC)c(Br)c2)c2c(-c3cccs3)nn(C)c2O1 (stereo not shown) [Compound 11, 4-(3-Bromo-4-methoxyphenyl)-6-((ethoxymethyl)amino)-1-methyl-3-(thiophen-2-yl)-1,4-dihydropyrano [2,3-c]pyrazole-5-carbonitrile] | 0 |  |  |
| N#CC1=C(N)Oc2n[nH]c(-c3cccs3)c2C1c1ccc2c(c1)-c1ccccc1C2 (stereo not shown) [Compound 6h, 6-amino-4-(9H-fluoren-3-yl)-3-(thiophen-2-yl)-2,4-dihydropyrano [2,3-c]pyrazole-5-carbonitrile] | 38 ± 6 |  |  |
| N#CC1=C(N)Oc2n[nH]c(-c3cccs3)c2C1c1cc(Br)c(OCc2ccccc2)c(Br)c1 (stereo not shown) [Compound 6l, 6-amino-4-(4-(benzyloxy)-3,5-dibromophenyl)-3-(thiophen-2-yl)-2,4-dihydropyrano[2,3-c]pyrazole-5-carbonitrile] | 26 ± 3 |  |  |
| COc1ccc(C2C(C#N)=COc3n[nH]c(-c4cccs4)c32)cc1Br (stereo not shown) [Compound 15, 4-(3-Bromo-4-methoxyphenyl)-3-(thiophen-2-yl)-2,4-dihydropyrano [2,3-c]pyrazole-5-carbonitrile] | 0 |  |  |
| N#CC1=C(N)Oc2n[nH]c(-c3cccs3)c2C1c1ccc([N+](=O)[O-])cc1 (racemic) [Compound 6g, 6-Amino-4-(4-nitrophenyl)-3-(thiophen-2-yl)-2,4-dihydropyrano[2,3-c]pyrazole-5-carbonitrile] | 57 ± 2 | 33 ± 5 |  |
| COc1ccc(C2C(C#N)=C(N)Oc3n[nH]c(-c4cccs4)c32)cc1I (racemic) [Compound 6u, 6-Amino-4-(3-iodo-4-methoxyphenyl)-3-(thiophen-2-yl)-2,4-dihydropyrano [2,3-c]pyrazole-5-carbonitrile] | 85 ± 1 | 1.8 ± 0.1 |  |
| COc1ccc(C2C(C#N)=C(N)Oc3n[nH]c(-c4cccs4)c32)cc1 (stereo not shown) [Compound 6b, 6-Amino-4-(4-methoxyphenyl)-3-(thiophen-2-yl)-2,4-dihydropyrano [2,3-c]pyrazole-5-carbonitrile] | 10 ± 7 |  |  |
| COc1ccc(C2C(C#N)=C(N)Oc3n[nH]c(-c4ccn(C)c4)c32)cc1Br (racemic) [Compound 7l, 6-Amino-4-(3-bromo-4-methoxyphenyl)-3-(1-methyl-1H-pyrrol-3-yl)-2,4-dihydropyrano[2,3-c]pyrazole-5-carbonitrile] | 88 ± 0.09 | 1.91 ± 0.8 |  |
| COc1ccc(C2C(C#N)=C(N)Oc3n[nH]c(-c4ccn(C)c4)c32)cc1I (racemic) [Compound 7m, 6-Amino-4-(3-iodo-4-methoxyphenyl)-3-(1-methyl-1H-pyrrol-3-yl)-2,4-dihydropyrano[2,3-c]pyrazole-5-carbonitrile] | 89 ± 1 | 1.31 ± 0.06 |  |
| N#CC1=C(N)Oc2n[nH]c(-c3cccs3)c2C1c1ccc(O)c(C(F)(F)F)c1 (racemic) [Compound 6v, 6-Amino-4-(4-hydroxy-3-(trifluoromethyl)phenyl)-3-(thiophen-2-yl)-2,4-dihydropyrano[2,3-c]pyrazole-5-carbonitrile] |  | 0.75 ± 0.06 | 93 ± 4 |
| N#CC1=C(N)Oc2n[nH]c(-c3cccs3)c2C1c1ccc(O)c(C(F)(F)F)c1 (racemic) [Compound 6q, 6-Amino-4-(4-hydroxy-3-(trifluoromethyl)phenyl)-3-(thiophen-2-yl)-2,4-dihydropyrano[2,3-c]pyrazole-5-carbonitrile] | 92 ± 2 | 11 ± 0.7 |  |
| C#CCOc1ccc(C2C(C#N)=C(N)Oc3n[nH]c(-c4cccs4)c32)cc1Br (racemic) [Compound 6n, 6-Amino-4-(3-bromo-4-(prop-2-yn-1-yloxy)phenyl)-3-(thiophen-2-yl)-2,4-dihydropyrano[2,3-c]pyrazole-5-carbonitrile] | 84 ± 2 | 4.5 ± 0.6 |  |
| COc1ccc(C2C(C#N)=C(N)Oc3nn(C(C)=O)c(-c4cccs4)c32)cc1Br (stereo not shown) [Compound 14, 2-Acetyl-6-amino-4-(3-bromo-4-methoxyphenyl)-3-(thiophen-2-yl)-2,4-dihydropyrano[2,3-c]pyrazole-5-carbonitrile] | 85 ± 2 | 0.53 ± 0.05 |  |
| Cc1ccc(C2C(C#N)=C(N)Oc3n[nH]c(-c4cccs4)c32)cc1 (stereo not shown) [Compound 6e, 6-Amino-3-(thiophen-2-yl)-4-(p-tolyl)-2,4-dihydropyrano [2,3-c]pyrazole-5-carbonitrile] | 0 |  |  |
| CCCOc1ccc(C2C(C#N)=C(N)Oc3n[nH]c(-c4cccs4)c32)cc1Br (stereo not shown) [Compound 6m, 6-Amino-4-(3-bromo-4-propoxyphenyl)-3-(thiophen-2-yl)-2,4-dihydropyrano [2,3-c]pyrazole-5-carbonitrile] | 32 ± 5 |  |  |
| COc1ccc(C2C(C#N)=C(N)Oc3n[nH]c(-c4ccc(Cl)cc4)c32)cc1Br (racemic) [Compound 7h, 6-Amino-4-(3-bromo-4-methoxyphenyl)-3-(4-chlorophenyl)-2,4-dihydropyrano [2,3-c]pyrazole-5-carbonitrile] | 66 ± 3 | 7.5 ± 0.9 |  |
| COc1ccc(C2C(C#N)=C(N)Oc3n[nH]c(-c4cccs4)c32)cc1Cl (racemic) [Compound 6t, 6-Amino-4-(3-chloro-4-methoxyphenyl)-3-(thiophen-2-yl)-2,4-dihydropyrano [2,3-c]pyrazole-5-carbonitrile] | 55 ± 3 | 7 ± 2 |  |
| N#CC1=C(N)Oc2n[nH]c(-c3cccs3)c2C1c1ccc(Cl)cc1 (stereo not shown) [Compound 6f, 6-Amino-4-(4-chlorophenyl)-3-(thiophen-2-yl)-2,4-dihydropyrano[2,3-c]pyrazole-5-carbonitrile] | 31 ± 6 |  |  |
| COc1ccc(C2C(C#N)=C(N)Oc3n[nH]c(-c4cccs4)c32)cc1Br (stereo not shown) [Compound 6a, 6-Amino-4-(3-bromo-4-methoxyphenyl)-3-(thiophen-2-yl)-2,4-dihydropyrano [2,3-c]pyrazole-5-carbonitrile] | 72 ± 3 |  |  |

The next lines start with results.

| inhibition at 100 µM [%] | SMILES | IC50 [µM] | % inhibition @100 μM [%] |
| --- | --- | --- | --- |
| 72 ± 4 | COc1ccc(C2C(C#N)=C(N)Oc3n[nH]c(-c4ccsc4)c32)cc1Br (racemic) [Compound 7a, 6-Amino-4-(3-bromo-4-methoxyphenyl)-3-(thiophen-3-yl)-2,4-dihydropyrano [2,3-c]pyrazole-5-carbonitrile] | 8.1 ± 1 |  |
| 0 | COc1ccc(C2C(C#N)=C(N)Oc3c2c(-c2cccs2)nn3C)cc1I (stereo not shown) [Compound 9b, 6-Amino-4-(3-iodo-4-methoxyphenyl)-1-methyl-3-(thiophen-2-yl)-1,4-dihydropyrano[2,3-c]pyrazole-5-carbonitrile] |  |  |
| 0 | COc1ccc(C2C(C#N)=C(N)Oc3c2c(-c2cccs2)nn3C)cc1Br (stereo not shown) [Compound 9a, 6-Amino-4-(3-bromo-4-methoxyphenyl)-1-methyl-3-(thiophen-2-yl)-1,4-dihydropyrano[2,3-c]pyrazole-5-carbonitrile] |  |  |
| 34 ± 6 | Cc1ccc(C2C(C#N)=C(N)Oc3n[nH]c(-c4ccc(Cl)cc4)c32)cc1C (stereo not shown) [Compound 7g, 6-Amino-3-(4-chlorophenyl)-4-(3,4-dimethylphenyl)-2,4-dihydropyrano[2,3-c]pyrazole-5-carbonitrile] |  |  |
| 32 ± 3 | COc1ccc(C2C(C#N)=C(N)Oc3n[nH]c(-c4cc(C)sc4C)c32)cc1Br (stereo not shown) [Compound 7n, 6-Amino-4-(3-bromo-4-methoxyphenyl)-3-(2,5-dimethylthiophen-3-yl)-2,4-dihydropyrano[2,3-c]pyrazole-5-carbonitrile] |  |  |
